Test system: S. pneumoniae (strain #0100993)
Experiment: Sub-lethal influenza infection followed by S. pneumoniae co-infection, survival (LD50) after PDE 4 inhibitor pretreatment
Assay type: in vivo, mice

With `COc1ccc([C@]2(C#N)CC[C@@H](C(=O)O)CC2)cc1OC1CCCC1` [Ariflo, cis-4-cyano-4-[3-(cyclopentyloxy)-4-methoxyphenyl]cyclohexane-1-carboxylic acid] the “LD50 of S. pneumoniae in treated mice” value (10 mg/kg orally once daily on days 0 to 9, S. pneumoniae challenge IN on day 9, control diluent LD50 72) was 252 cfu/mouse and the “LD50 of S. pneumoniae in treated mice” value (30 mg/kg orally once daily on days 0 to 9, S. pneumoniae challenge IN on day 9, control diluent LD50 72) was 221 cfu/mouse.
